Assay results reported in patent US5770382A, “Tricyclic retinoids, methods for their production and use” (Ligand Pharmaceuticals, Inc., priority 1995, dated 1998).
“Also recorded” adds a separate entry of the source.

Key:
[1] = system: RAR and RXR receptors; assay: Co-transfection assay, summary for RARs and RXRs; type: cell-based; settings: for potency profile in comparison to 9-cis retinoic acid (in words): versus 9-cis
Protocol: (§1) Utilizing the "cis-trans" or "co-transfection" assay described by Evans et al., Science, 240:889-95 (May 13, 1988), the disclosure of which is herein incorporated by reference, the retinoid compounds of the present invention were tested and found to have strong, specific activity as either selective RAR agonists, selective RXR agonists, or as pan-agonist activators of both RAR and RXR receptors. This assay is described in further detail in U.S. Pat. Nos. 4,981,784 and 5,071,773, the disclosures of which are incorporated herein by reference.
(§2) The co-transfection assay provides a method for identifying functional agonists which mimic, or antagonists which inhibit, the effect of native hormones, and quantifying their activity for responsive IR proteins. In this regard, the co-transfection assay mimics an in vivo system in the laboratory. Importantly, activity in the co-transfection assay correlates very well with known in vivo activity, such that the co-transfection assay functions as a qualitative and quantitative predictor of a tested compounds Ln vivo pharmacology. See, e.g., T. Berger et al. 41 J. Steroid Biochem. Molec. Biol. 733 (1992), the disclosure of which is herein incorporated by reference.
(§3) In the co-transfection assay, a cloned cDNA for an IR (e.g., human RARα, RARβ, RXRγ) under the control of a constitutive promoter (e.g., the SV 40 promoter) is introduced by transfection (a procedure to induce cells to take up foreign genes) into a background cell substantially devoid of endogenous IRs. This introduced gene directs the recipient cells to make the IR protein of interest. A second gene is also introduced (co-transfected) into the same cells in conjunction with the IR gene. This second gene, comprising the cDNA for a reporter protein, such as firefly luciferase (LUC), controlled by an appropriate hormone responsive promoter containing a hormone response element (HRE). This reporter plasmid functions as a reporter for the transcription-modulating activity of the target IR. Thus, the reporter acts as a surrogate for the products (mRNA then protein) normally expressed by a gene under control of the target receptor and its native hormone.
(§4) The co-transfection assay can detect small molecule agonists or antagonists of target IRs. Exposing the transfected cells to an agonist ligand compound increases reporter activity in the transfected cells. This activity can be conveniently measured, e.g., by increasing luciferase production, which reflects compound-dependent, IR-mediated increases in reporter transcription. […] . Increasing concentrations of a suspected antagonist will decrease the reporter signal (e.g., luciferase production). The co-transfection assay is therefore useful to detect both agonists and antagonists of specific IRs. Furthermore, it determines not only whether a compound interacts with a particular IR, but whether this interaction mimics (agonizes) or blocks (antagonizes) the effects of the native regulatory molecules on target gene expression, as well as the specificity and strength of this interaction.
To determine RAR and/or RXR agonist activity of the compounds of the present invention, the CV-1 cells were transiently transfected by calcium phosphate coprecipitation according to the procedure of Berger et al., 41 J.Steroid Biochem. Mol. Biol., 733 (1992) with the following receptor expressing plasmids: pRShRARα: Giguere et al., 330 Nature, 624 (1987); pRShRARβ and pRShRARγ, Ishikawa et al., 4 Mol. Endocrin., 837 (1990); pRShRXRα, Mangelsdorf et al., 345 Nature, 224 (1990); and pRSmRXRβ and pRSmRXRγ, Mangelsdorf et al., 6 Genes & Devel., 329 (1992), the disclosures of which are herein incorporated by reference.

[2] = system: RARs; assay: Co-transfection assay, summary for the RARs; type: cell-based, human
Protocol: as §1, §2, §3
as §4, with “Furthermore, it determines not only whether a compound interacts with a particular IR, but whether this interaction mimics (agonizes) or blocks (antagonizes) the effects of the native regulatory molecules on target gene expression, as well as the specificity and strength of this interaction.” left out

[3] = target: T1, RXRα (Homo sapiens, UniProt P19793); assay: Co-transfection assay, RXRα agonist activity; type: cell-based; settings: CV-1 cells, 40 hours; read-out: RXRα Pot (potency, EC50)
T1 construct: expressed in transfected cells; host or cells: CV-1 (African green monkey kidney fibroblasts)
T1 sequence (P19793 1-462): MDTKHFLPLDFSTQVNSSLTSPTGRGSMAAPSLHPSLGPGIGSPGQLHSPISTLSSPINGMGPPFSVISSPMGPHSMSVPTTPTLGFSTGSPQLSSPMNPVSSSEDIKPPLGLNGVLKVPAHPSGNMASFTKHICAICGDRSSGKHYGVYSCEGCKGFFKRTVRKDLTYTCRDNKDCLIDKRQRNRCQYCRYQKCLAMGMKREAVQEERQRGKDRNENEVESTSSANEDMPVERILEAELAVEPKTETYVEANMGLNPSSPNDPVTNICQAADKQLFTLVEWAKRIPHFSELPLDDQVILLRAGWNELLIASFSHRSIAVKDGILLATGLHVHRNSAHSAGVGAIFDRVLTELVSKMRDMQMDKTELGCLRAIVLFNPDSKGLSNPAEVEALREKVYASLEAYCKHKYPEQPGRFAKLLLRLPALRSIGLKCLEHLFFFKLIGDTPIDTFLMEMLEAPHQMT

[4] = system: ornithine decarboxylase (ODC); settings: literature; cited from earlier work

| SMILES | agonist type on RAR and RXR receptors (in words) [1] | potency profile in comparison to 9-cis retinoic acid (in words) [1] | RAR activity / selectivity (in words) [2] | further results |
| --- | --- | --- | --- | --- |
| CC(/C=C/CC1CCCc2cc3c(cc21)C(C)(C)CCC3(C)C)=C\C(=O)O (racemic) [Compound 124b, (2E,4E)-3-Methyl-6-(1,2,3,4,5,6,7,8-octahydro-5,5,8,8-tetramethylanthracen-1-yl)hexa-2,4-dienoic acid] | pan-agonist | superior potency profiles |  |  |
| CC(/C=C/C=C1/CCCc2cc3c(cc21)C(C)(C)CCC3(C)C)=C\C(=O)O [Compound 101b, (2E,4E)-3-Methyl-6-[(Z)-3,4,5,6,7,8-hexahydro-5,5,8,8-tetramethyl-2H-anthracen-1-ylidene]hexa-2,4-dienoic acid] | pan-agonist | superior potency profiles | extremely potent RAR active |  |
| CC(/C=C/C=C1\CCCc2cc3c(cc21)C(C)(C)CCC3(C)C)=C\C(=O)O [Compound 109b, (2E,4E)-3-Methyl-6-[(E)-3,4,5,6,7,8-hexahydro-5,5,8,8-tetramethyl-2H-anthracen-1-ylidene]hexa-2,4-dienoic acid] |  |  | extremely potent RAR active; also recorded: RAR selective |  |
| CC(/C=C/C=C1\CCOc2cc3c(cc21)C(C)(C)CCC3(C)C)=C\C(=O)O [Compound 119b, (2E,4E)-3-Methyl-6-[(E)-2,3,6,7,8,9-hexahydro-6,6,9,9-tetramethyl-benzo[g]chromen-4-ylidene]hexa-2,4-dienoic acid] |  |  | extremely potent RAR active; also recorded: RAR selective |  |
| CC(/C=C/C=C1/CCOc2cc3c(cc21)C(C)(C)CCC3(C)C)=C\C(=O)O [Compound 144b] | pan-agonist | superior potency profiles | extremely potent RAR active |  |
| CCN1CC\C(=C/C=C/C(C)=C/C(=O)O)c2cc3c(cc21)C(C)(C)CCC3(C)C [Compound 147b, (2E,4E)-3-methyl-6-[(E)1-ethyl-6,6,9,9-tetramethyl-2,3,6,7,8,9-hexahydro-1H-benzo[g]quinolin-4-ylidene]hexa-2,4-dienoic acid] |  |  |  | EC50 [3]: > 10 µM |
| CC1=C(/C=C/C(C)=C/C=C/C(C)=C/C(=O)O)C(C)(C)CCC1 [retinoic acid] |  |  |  | inhibition of TPA induction of ODC (in words) [4]: inhibits this induction of ODC by TPA |
